The text below walks through data of patent US11512091B2, “Crystal of benzoxazole derivative” (MEIJI SEIKA PHARMA CO., LTD., priority 2018, dated 2022).

Some results are limits rather than exact numbers.

The nature of data set [1]: Stability test (storage of crystals, chemical purity by HPLC). The format is physicochemical. The conditions noted are these: for chemical stability (in words): thermal stability test, photostability test, accelerated stability test. The method, then: The I type crystal and the II type crystal of the compound represented by formula (1) were put in glass bottles (in about 300 mg each) and stored under various conditions. After the storage period, the chemical purity of the samples taken out was measured by HPLC. The conditions of each test were as follows.
Thermal stability test: 60° C., hermetically sealed, a period of 3 weeks
Photostability test: 25° C., 1.2 million lux hours (2,000 lux, for 25 days)
Accelerated stability test (hermetically sealed): 40° C., 75% RH*, a period of 1 month
Accelerated stability test (opened): 40° C., 75% RH*, a period of 1 month
As the result of evaluation of each stability, the amount of the compound represented by formula (1) contained in the crystal is presented in Table 1 as a residual ratio (a HPLC area percentage ratio to the initial value, expressed in percentage).

Data set [2] can be described thus: Hygroscopicity test (isothermal water vapor adsorption, DVS). The format is physicochemical. The conditions noted are these: at 95% RH, 25° C., relative to weight equilibrium value at 0% RH. As for the experimental part:
Isothermal adsorption measurement of the I type crystal and the II type crystal of the compound represented by formula (1) was performed, using a water vapor adsorption measurement instrument (available from Surface Measurement Systems Ltd., DVS ADVANTAGE 1) (with a sample of about 10 mg, at 25° C., at from 0% RH through 95% RH). As the result of evaluation of hygroscopicity, a weight increase rate at 95% RH (weight increase from initial value/initial value×100, *initial value: weight equilibrium value at 0% RH) is presented in Table 2.

The next data set deals with PDE4. Briefly: Evaluation of PDE4 inhibition (Scintillation Proximity Assay). The format is biochemical. The conditions noted are these: SPA, [3H]-cAMP, room temperature 120 minutes; read-out: PDE4 inhibiting activity (the concentration at an inhibition rate of 50%). As for the experimental part: The PDE4 inhibiting activity was measured in the following manner, employing Scintillation Proximity Assay (SPA). The specimen compound dissolved in dimethyl sulfoxide and diluted 10 fold with a buffer solution for reaction containing 50 mM Tris-HCl (pH of 7.4), 8.3 mMMgCl2, 1.7 mM EGTA, and 3 mg/mL bovine serum albumin (BSA) was added in 10 microliters in a 96-well assay plate. After PDE4 diluted 375 fold with the buffer solution for reaction was further added in 50 microliters, a [2,8-^3H]-Adenosine-3′,5′-cyclic phosphate triethylammonium salt diluted 1,000 fold with the buffer solution for reaction was added in 40 microliters, and the resultant was left to stand still at room temperature for 120 minutes. […] Subsequently, radioactivity was measured with a liquid scintillation counter for a 96-well plate. The inhibition rate of the compound represented by formula (1) to a control was calculated according to the following calculation formula, where the blank was prepared as the buffer solution for reaction only, with no enzyme preparation, and the control was prepared with the enzyme preparation and with only dimethyl sulfoxide instead of the specimen solution. […]

Where [3] appears, read: Accelerated stability test (hermetically sealed): 40° C., 75% RH, 1 month.
The mark [4] stands for this setting: Accelerated stability test (opened): 40° C., 75% RH, 1 month.
Where [5] appears, read: Photostability test: 25° C., 1.2 million lux hours (2,000 lux, 25 days).
The mark [6] stands for this setting: Thermal stability test: 60° C., hermetically sealed, 3 weeks.

On to `CC(C)(O)C(F)(F)Oc1ccc(-c2nccs2)c2oc(N3CC4CC(C3)N4)nc12` [I type crystal, 1-((2-(3,6-diazabicyclo[3.1.1]heptan-3-yl)-7-(thiazol-2-yl)benzo[d]oxazol-4-yl)oxy)-1,1-difluoro-2-methylpropan-2-ol], for which the “Residual ratio (%) of compound represented by formula (1)” value in data set [1] (setting [3]) amounted to 100.1%; in data set [1] (setting [4]), 100.1%; in data set [1] (Initial value), 100.0%; in data set [1] (setting [5]), 100.1%; in data set [1] (setting [6]), 99.8%. The “chemical stability (in words)” value in data set [1] was “sufficient chemical stability”. Besides, in data set [2], the “Weight increase rate (%)” value amounted to 0.6%.

As to `CC(C)(O)C(F)(F)Oc1ccc(-c2nccs2)c2oc(N3CC4CC(C3)N4)nc12` [II type crystal, 1-((2-(3,6-diazabicyclo[3.1.1]heptan-3-yl)-7-(thiazol-2-yl)benzo[d]oxazol-4-yl)oxy)-1,1-difluoro-2-methylpropan-2-ol], the “Residual ratio (%) of compound represented by formula (1)” value in data set [1] (setting [3]) came to 100.1%; in data set [1] (setting [4]), 100.0%; in data set [1] (Initial value), 100.0%; in data set [1] (setting [5]), 99.5%; in data set [1] (setting [6]), 100.0%. For the same compound, the “chemical stability (in words)” value in data set [1] is given as “sufficient chemical stability”. In data set [2], the “Weight increase rate (%)” value turned out to be 10.7%.

With `CC(C)(O)C(F)(F)Oc1ccc(-c2nccs2)c2oc(N3CC4CC(C3)N4)nc12` [compound represented by formula (1), 1-((2-(3,6-diazabicyclo[3.1.1]heptan-3-yl)-7-(thiazol-2-yl)benzo[d]oxazol-4-yl)oxy)-1,1-difluoro-2-methylpropan-2-ol], the IC50 in the data set with PDE4 is < 100 nM.
